{"source": "patent US20210228748A1", "about": "“IN VIVO STABLE HG-197(M) COMPOUNDS, METHOD FOR THE PRODUCTION THEREOF AND USE THEREOF IN NUCLEAR MEDICAL DIAGNOSTICS AND ENDORADIONUCLIDE THERAPY (THERANOSTICS)” (HELMHOLTZ-ZENTRUM DRESDEN - […].V., priority 2017, published 2021)", "key": {"[1]": {"assay": "Human serum stability assay (SDS-PAGE autoradiograph)", "assay_type": "in vitro ADME", "settings": "incubated with human serum 1 h at 37° C., pH 7.4, non-reducing SDS-PAGE", "experimental": "FIGS. 4A and 4B show stability testing for compound 3*, namely the analysis of ^197(m)Hg-incorporation into human serum proteins by SDS-PAGE (20% SDS-polyacrylamide gel autoradiograph (FIG. 4A), showing 197(m)Hg-labeled bands, and Coomassie staining (FIG. 4B), showing bands of human serum proteins; Lane 1: ^197(m)>Hg-radiolabeled bispidine 3*. Lane 2: ^197(m)Hg-radiolabeled EDTA. M: molecular-weight size marker).\nHuman serum “off the clot” (5 ml) stored at −20° C. was slowly thawed on ice and filtered using syringe filters with a pore size of 0.2 μm. Two aliquots of filtered serum (2×220 μl) were mixed with 1 M HEPES/NaOH buffer (pH 7.4, 2×45 μl). Separately, 2×200 μl solution (1:1 EtOH:H2O, pH 6) of 3* (˜4 MBq) and 197(m)HgCl2/EDTA (˜5 MBq, 10 μg EDTA) had 1 M HEPES/NaOH buffer (pH 8.0, 2×20 μl) added to increase solution pH to 7.4. Then 135 μl of each 197(m)Hg-radiolabeled sample was added to one of the previously prepared serum/buffer solutions (265 μl) and incubated for 1 h at 37° C. 50 μl aliquots were then taken and mixed with 50 μl of 2× Laemmli sample buffer (Bio-Rad Laboratories), N.B. no reducing agent was added and the samples were not heated. The mixtures were then analyzed by non-reducing SDS-PAGE with acrylamide concentrations of 5% in the stacking gel and 20% in the resolving gel. 2 μl of each sample were loaded into each gel well. […]"}, "[2]": {"assay": "Volatility test", "assay_type": "physicochemical", "settings": "70% EtOH(aq), 50° C., dry nitrogen stream 1 h", "experimental": "(§1) After pH-adjustment of the hydrochloric acid solution of [197(m)Hg]HgCl2(aq) (˜55 MBq, 20 μl, pH 1), by addition of 0.5 M HEPES buffer (pH 8, 200 μl), EtOH (200 μl), 6 M NaOH(aq) (11 μl), and 1 M NaOH(aq) (2 μl), a 1 mg/ml acetonitrile solution of 2 (12 μl, 14 nmol) was added. This solution (pH 6, 445 μl) was mixed at 50° C. for 1 h. The radiochemical yield of 3* was determined by radio-TLC (iTLC ACN+0.1% TFA, RP-18 TLC 9:1 ACN: H2O+0.1% TFA) as >95%. Purification and solvent change were carried out with a C8 cartridge (500 mg). After washing with water the major product was eluted with 7:3 EtOH:H2O from the cartridge. The last 2 fractions contained ˜16 MBq and ˜10 MBq respectively. The ˜16 MBq fraction had 3×200 μl extracted (˜4 MBq each). These fractions then had 1 competitor added each (1 mg/ml, 10 μl): tris(2-mercaptoethyl)ammonium oxalate, glutathione and Na2S. The mixtures were left at rt and checked by radio-TLC after 5 min, 1 h and 2 d, the only degradation observed was ˜4% after 2 d in the Na2S mixture. The ˜10 MBq fraction was divided into 2×500 μl. The first lot was used to test the stability of 3* in the highly aqueous solvent system necessary for biodistribution studies, this was diluted from 70% EtOH(aq) to ˜10% EtOH(aq) with brine (3.5 ml). […]"}, "[3]": {"assay": "Stability test with excess of sulfur-containing competitors (radio-TLC)", "assay_type": "physicochemical", "experimental": "as §1"}, "[4]": {"assay": "Stability in highly aqueous solvent system for biodistribution studies", "assay_type": "physicochemical", "settings": "diluted from 70% EtOH(aq) to ~10% EtOH(aq) with brine", "experimental": "as §1"}, "[5]": {"assay": "Biodistribution in healthy male Wistar rats", "assay_type": "in vivo", "description": "FIG. 5 show biodistribution of compound 3* in healthy male Wistar rats (^197(m)HgCl2: n=4, 3*: n=8; ˜300 kBq per animal; all other organs measured well below 1% ID/g)."}}, "note": "Entries after “also recorded” stand apart in the source; their conditions may differ.", "data": [{"smiles": "CCCC[C@]1(O)C2(c3ccccc3)CN3Cc4cccc[c]4[Hg][c]4ccccc4CN(C2)C[C@]1(c1ccccc1)C3", "note": "[3*, 9-butyl-8,10-diphenyl-6,10:8,12-dimethanodibenzo[c,f][1,9]diaza[5]mercuracyclotetradecan-9-ol]", "values": [{"measurement": "197(m)Hg release (demetallation) and binding to serum proteins", "setting": "[1]", "value": "there isn't any observable protein interaction; also recorded: neither 197(m)Hg release (demetallation) nor binding to serum proteins is detectable"}, {"measurement": "loss of activity by evaporation (volatility)", "setting": "[2]", "value": "no observable loss by evaporation"}, {"measurement": "degradation observed by radio-TLC", "setting": "[3]; Na2S competitor (1 mg/ml, 10 μl), rt, after 2 d", "value": "~4", "unit": "%"}, {"measurement": "chemical stability against sulfur-containing competitors", "setting": "[3]; excess of glutathione, tris(2-mercaptoethyl)ammonium oxalate and sodium sulfide", "value": "high chemical stability"}, {"measurement": "stability of the solution by radio-TLC", "setting": "[4]", "value": "good stability"}, {"measurement": "biodistribution, all other organs (not shown in FIG. 5)", "setting": "[5]; healthy male Wistar rats, ~300 kBq per animal", "value": "below 1 % ID/g"}, {"measurement": "demetallation and retention in the kidneys", "setting": "[5]; healthy rats, biodistribution and SPECT", "value": "no indication of demetallation and retention in the kidneys"}, {"measurement": "organ / renal clearance", "setting": "[5]; healthy rats, normal micturition during a 24 h period", "value": "good organ clearance; also recorded: good renal clearance"}]}]}
